The values below come from PubChem BioAssay AID1963847 (Molecular Pharmacology Branch, DTP, NCI, 2024).

The subject of this assay is 415267-285-R-J2-PDC complex spheroid viability. The assay can be described thus: Anticancer human tumor 415267-285-R-J2-PDC patient-derived breast carcinoma cell line growth inhibition [POLQ]. The following applies: for viability, T/C: stronger effect = lower value. As to the method: Multicellular complex tumor spheroid response to Polymerase (POL) inhibitors (novobiocin, ART-558, RP6685) in combination with a variety of drugs and investigational agents in selected tumor cell lines
The POL inhibitors (novobiocin, ART-558, and RP6685) were evaluated both individually and in combination with standard of care and investigational anticancer small molecules within a complex spheroid model of solid tumors. . Complex spheroids include a stromal component modeled by human endothelial cells (HUVEC) and fibroblasts modeled by human mesenchymal stem cells (MSCs). The concentration ranges selected for each drug and investigational agent were based upon clinically achievable concentrations if the clinical Cmax of the agent was known.
Compounds. The drugs and investigational agents: novobiocin (NSC847541), ART-558 (NSC835418), RP-6685 (NSC848927), peposertib (NSC802822), ceralasertib (NSC780249), elimusertib (NSC800525), camonsertib (NSC841442), AZD-1390 (NSC803789), olaparib (NSC753686), talazoparib (NSC767125), rucaparib (NSC756644), sotorasib (NSC818433), MRTX-1133 (NSC836407), SN-38 (NSC673596), topotecan (NSC609699), epotoside (NSC141540), doxorubicin (NSC123127), gemcitabine (NSC613327), 5-fluorouracil (NSC19893), paclitaxel (NSC125973), vemurafenib (NSC761431), MSA-2 (NSC828583), SN-011 (NSC837082), adavosertib (NSC754352), prexasertib (NSC758257), carboplatin (NSC241240) and oxaliplatin (NSC266046), were obtained from the National Cancer Institute (NCI) Developmental Therapeutics Program Chemical Repository (21). The FDA-approved anticancer drug set is available from the Developmental Therapeutics Program at https://dtp.cancer.gov/organization/dscb/obtaining/. […] The stock solutions were prepared in dimethyl sulfoxide (DMSO, Sigma-Aldrich, St. Louis, MO, cat. D2650), except for the platinum compounds which were prepared in saline (Quality Biological, Gaithersburg, MD, cat. 114-055-101), at 800-fold the tested concentration and stored at -70 degrees C prior to their use. All drugs and investigational agents were tested over a range starting from a high concentration at or near the clinical Cmax and decreasing in half-log increments. If the clinical Cmax for an agent had not been determined, the highest concentration tested was 10 microM, except for SN-38, which was tested at a high concentration of 1 microM.
Cell Culture. All cells were maintained in an incubator at 37 degrees C and 5% CO2 with 95% humidity. The PDC lines were cultured according to standard operating procedures established by the NCI PDMR (https://pdmr.cancer.gov). Table 3 of the manuscript, lists the cell lines along with the number of the three cell types plated to form the mct-spheroids and media for tumor cell growth. After thawing, all PDC lines, except 997537-175-T-J1-PDC and 415267-285-R-J2-PDC, were cultured in Matrigel-coated flasks prepared with a working solution of 1X Ham's F-12 nutrient mix, without supplementation (Thermo Fisher Scientific, cat. 11765054), 100 U/mL penicillin-streptomycin (Thermo Fisher Scientific, cat. 15140122), and 2.5% Matrigel (Corning Inc., Corning, NY, cat. 354248) for the first three passages. The two PDC lines 997537-175-T-J1-PDC and 415267-285-R-J2-PDC were cultured on uncoated flasks. The 857933-349-R-J2-PDC line was cultured in 6C/Colon 1B media containing advanced DMEM/F-12 (Thermo Fisher Scientific, cat. 12634028), 10 mM HEPES (Thermo Fisher Scientific, cat. 15630080), 1X GlutaMAX supplement (Thermo Fisher Scientific, cat. 35050061), 0.1 mg/mL primocin (InvivoGen, San Diego, CA, cat. ant-pm-2), 10% defined fetal bovine serum, heat inactivated (HyClone Laboratories Inc., Logan, UT, cat. SH30070.03HI), 50% L-WRN conditioned media (ATCC, cat. CRL-3276), 1.25 mM N-Acetyl-L-cysteine (Sigma-Aldrich, cat. A9165), 10 mM nicotinamide (Sigma-Aldrich, cat. N0636), 1X B-27 supplement (Thermo Fisher Scientific, cat. 17504044), 1X N-2 supplement (Thermo Fisher Scientific, cat. […]

“And” between values parts separate entries of the source, which are not always exact repeats. Equal entries are not always repeated.
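Note: spheroids exposed to compounds for one week before readout.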
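Throughout, for viability, T/C: luminescence used as stand-in measure of viable cells.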

As usually defined, the IC50 is the point on the concentration scale where inhibition reaches its midpoint. One may read the viability, T/C as the result in the treated group divided by that in the control group, in per cent. In the case of `CC(=O)O[C@H]1C(=O)[C@@]2(C)[C@H]([C@H](OC(=O)c3ccccc3)[C@]3(O)C[C@H](OC(=O)[C@H](O)[C@@H](NC(=O)c4ccccc4)c4ccccc4)C(C)=C1C3(C)C)[C@]1(OC(C)=O)CO[C@@H]1C[C@@H]2O` + COC1C(OC(N)=O)C(O)C(Oc2ccc3c(O)c(NC(=O)c4ccc(O)c(CC=C(C)C)c4)c(=O)oc3c2C)OC1(C)C, the IC50 is < 9.49 nM (curve of first compound, second compound 0.0316 µM); < 9.49 nM (curve of first compound, second compound 0.1 µM); < 9.49 nM (curve of first compound, second compound 0.316 µM); < 9.49 nM (curve of first compound, second compound 1 µM); < 9.49 nM (curve of first compound, second compound 3.16 µM); < 9.49 nM (curve of first compound, second compound 10 µM). In addition, the viability, T/C (second compound 0.0316 µM, first compound 0.00949 µM) is 13.6%; the viability, T/C (second compound 0.0316 µM, first compound 0.03 µM) was 9.68%; the viability, T/C (second compound 0.0316 µM, first compound 0.0949 µM) was 8.14%; the viability, T/C (second compound 0.0316 µM, first compound 0.3 µM) was 6.55%; the viability, T/C (second compound 0.0316 µM, first compound 0.949 µM) was 8.38%; the viability, T/C (second compound 0.0316 µM, first compound 3 µM) was 8.03%. Further, the viability, T/C was 11% (second compound 0.1 µM, first compound 0.00949 µM); 8.15% (second compound 0.1 µM, first compound 0.03 µM); 7.43% (second compound 0.1 µM, first compound 0.0949 µM); 7.95% (second compound 0.1 µM, first compound 0.3 µM); 8.29% (second compound 0.1 µM, first compound 0.949 µM); 9.45% (second compound 0.1 µM, first compound 3 µM). Besides, the viability, T/C runs as follows: (second compound 0.316 µM, first compound 0.00949 µM) 13.1%; (second compound 0.316 µM, first compound 0.03 µM) 9.7%; (second compound 0.316 µM, first compound 0.0949 µM) 7.34%; (second compound 0.316 µM, first compound 0.3 µM) 8.56%; (second compound 0.316 µM, first compound 0.949 µM) 8.09%; (second compound 0.316 µM, first compound 3 µM) 7.17%. The viability, T/C is 12.9% (second compound 1 µM, first compound 0.00949 µM); 8.82% (second compound 1 µM, first compound 0.03 µM); 8.23% (second compound 1 µM, first compound 0.0949 µM); 8.01% (second compound 1 µM, first compound 0.3 µM); 8.58% (second compound 1 µM, first compound 0.949 µM); 7.75% (second compound 1 µM, first compound 3 µM). Besides, the viability, T/C reads like this: (second compound 3.16 µM, first compound 0.00949 µM) 13%; (second compound 3.16 µM, first compound 0.03 µM) 10.4%; (second compound 3.16 µM, first compound 0.0949 µM) 8%; (second compound 3.16 µM, first compound 0.3 µM) 7.65%; (second compound 3.16 µM, first compound 0.949 µM) 8.33%; (second compound 3.16 µM, first compound 3 µM) 8.3%. The viability, T/C was 24.1% (second compound 10 µM, first compound 0.00949 µM); 9.1% (second compound 10 µM, first compound 0.03 µM); 7.75% (second compound 10 µM, first compound 0.0949 µM); 8.73% (second compound 10 µM, first compound 0.3 µM); 6.75% (second compound 10 µM, first compound 0.949 µM); 9.23% (second compound 10 µM, first compound 3 µM).
Consider `CC1COCCN1c1cc(C2(O)CC3CCC(C2)O3)c2cnn(-c3ccn[nH]3)c2n1` (stereo not drawn), for which the viability, T/C is 18.3% and 19.4% and 19.9% (compound 0.0316 µM); 6.66% and 6.95% and 6.71% (compound 0.1 µM); 5.68% and 5.24% and 4.27% (compound 0.316 µM); 3.96% and 5.04% and 3.53% (compound 1 µM); 6.45% and 6.44% and 3.52% (compound 3.16 µM); 4.11% and 4.93% and 2.88% (compound 10 µM). Besides, the IC50 (curve of compound) is < 31.6 nM.
`O=C(Nc1ccc(O)c(NS(=O)(=O)c2ccc(F)cc2)c1)c1ccc(-c2ccccc2)cc1`: the viability, T/C is, setting by setting: (compound 0.0316 µM) 111% and 102% and 103%; (compound 0.1 µM) 108% and 97.2% and 98.4%; (compound 0.316 µM) 107% and 98.6% and 103%; (compound 1 µM) 92.3% and 107% and 105%; (compound 3.16 µM) 109% and 101% and 98.1%; (compound 10 µM) 68.7% and 71.7% and 46.8%. Besides, under “curve of compound”, the IC50 is > 10000 nM and 9320 nM.
Take `CC(=O)O[C@H]1C(=O)[C@@]2(C)[C@H]([C@H](OC(=O)c3ccccc3)[C@]3(O)C[C@H](OC(=O)[C@H](O)[C@@H](NC(=O)c4ccccc4)c4ccccc4)C(C)=C1C3(C)C)[C@]1(OC(C)=O)CO[C@@H]1C[C@@H]2O`: the viability, T/C is, setting by setting: (compound 0.00949 µM) 16.9% and 25% and 13%; (compound 0.03 µM) 9.1% and 9.98% and 8.84%; (compound 0.0949 µM) 8.45% and 7.67% and 7.24%; (compound 0.3 µM) 8.09% and 8.99% and 7.37%; (compound 0.949 µM) 6.85% and 7.15% and 7.58%; (compound 3 µM) 7.67% and 7.6% and 8.18%. For the setting “curve of compound”, the IC50 was < 9.49 nM.
